{
  "source": "EPA's ToxValDB 9.5 (doi:10.2903/j.efsa.2010.1906)",
  "key": {"[1]": {"test_system": "Daphnia magna", "conditions": "chronic/long-term; duration: 21 days; reproduction"}, "[2]": {"test_system": "Lepomis macrochirus", "conditions": "acute; duration: 96 hours; mortality"}, "[3]": {"test_system": "Mus musculus", "conditions": "chronic; histopathology: neoplastic"}, "[4]": {"test_system": "Bibionidae", "conditions": "chronic/long-term; duration: 28 days; development"}, "[5]": {"test_system": "Canidae", "conditions": "subchronic; duration: 90 days; oral; F; Dog Other; body weight"}, "[6]": {"test_system": "Landoltia sp.", "conditions": "acute; duration: 14 days"}, "[7]": {"test_system": "Folsomia candida", "conditions": "chronic/long-term, duration: 28 days"}, "[8]": {"test_system": "Colinus virginianus", "conditions": "acute, oral, mortality"}, "[9]": {"test_system": "Oryctolagus sp.", "conditions": "developmental; development"}, "[10]": {"test_system": "Apis mellifera", "conditions": "acute; duration: 48 hours; oral; unspecified; mortality"}, "[11]": {"test_system": "Tagia sp."}, "[12]": {"test_system": "Anas platyrhynchos", "conditions": "reproductive"}, "[13]": {"test_system": "Pimephales promelas", "conditions": "chronic/long-term; duration: 34 days; reproduction"}, "[14]": {"test_system": "Rattus norvegicus", "conditions": "oral"}},
  "data": [
    {"smiles": "CCOc1cc(Oc2ccc(C(F)(F)F)cc2Cl)ccc1[N+](=O)[O-]", "note": "[Oxyfluorfen]", "values": [
      {"measurement": "NOEC", "setting": "[1]", "value": 0.013, "unit": "mg/L"},
      {"measurement": "LC50", "setting": "[2]", "value": 0.21, "unit": "µg/mL"},
      {"measurement": "NOAEL", "setting": "[3]", "value": 3, "unit": "mg/kg-day"},
      {"measurement": "NOEC", "setting": "[4]", "value": 0.08, "unit": "mg/L"},
      {"measurement": "NOAEL", "setting": "[5]", "value": 2.17, "unit": "mg/kg-day"},
      {"measurement": "NOEC", "setting": "[6]", "value": 0.00195, "unit": "mg/L"},
      {"measurement": "LC50", "setting": "[7]; mortality", "value": 2.78, "unit": "mg/kg"},
      {"measurement": "NOEC", "setting": "[7]; reproduction", "value": 1.25, "unit": "mg/kg"},
      {"measurement": "LD50", "setting": "[8]; diet", "value": "> 462", "unit": "mg/kg-day"},
      {"measurement": "LD50", "setting": "[8]", "value": "> 2150", "unit": "mg/kg-day"},
      {"measurement": "NOAEL", "setting": "[9]", "value": 30, "unit": "mg/kg-day"},
      {"measurement": "LD50", "setting": "[10]", "value": "> 100", "unit": "µg/piece"},
      {"measurement": "LC50", "setting": "[11]; acute, duration: 14 days, mortality", "value": "> 1000", "unit": "mg/kg"},
      {"measurement": "NOEC", "setting": "[11]; chronic/long-term, duration: 56 days", "value": 24, "unit": "mg/kg"},
      {"measurement": "NOEL", "setting": "[12]", "value": 64.7, "unit": "mg/kg-day"},
      {"measurement": "NOEC", "setting": "[13]", "value": 0.038, "unit": "mg/L"},
      {"measurement": "LD50", "setting": "[14]; acute, mortality", "value": "> 5000", "unit": "mg/kg-day"},
      {"measurement": "NOAEL", "setting": "[14]; chronic, duration: 2 years", "value": 20, "unit": "mg/kg-day"}
    ]}
  ]
}
